Among the test systems are A549; HCC 2998; HL-60; HOP-62; HT-29; IGROV-1; K562; LOX IMVI; MDA-MB-231; MOLT-4; NCI-H522; OVCAR-3; OVCAR-4; SK-MEL-28; SK-OV-3; SNB-19; SNB-75; SW-620; T47D; U-251.
Holding throughout (experiment): NCI-60 cell line screen, 48 h

“And” between values parts separate entries of the source, which are not always exact repeats. Equal entries are not always repeated.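 In this assay, cells in 96-well plates receive the compound at five concentrations for 48 hours. Endpoints are linearly interpolated between the surrounding concentrations. At the GI50, growth is halved.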 The source made the active and inactive calls. Cut-off read from the data, not from the text of the source: active = GI50 up to about 1.1 µM and inactive = higher. *1 amine or outer side, *2 acyl side, *3 side chain or, on linkers, in order; H or OH if unused. Where a SMILES comes first, the peptide text is derived from it. [ ]: non-standard residue; d: D form. The star is where a group is joined. ξ: configuration not given here. X26 = O=C([C@H]1CCC[C@H]1N[*:1])[*:2]; ξW = NC(Cc1c[nH]c2ccccc12)C(=O)O; ξF = NC(Cc1ccccc1)C(=O)O; Boc = CC(C)(C)OC(=O)*; ξK = NCCCCC(N)C(=O)O; ξT = CC(O)C(N)C(=O)O; tBu = CC(C)(C)*

`O=C(C1OC1c1ccc([N+](=O)[O-])cc1)C12CC3CC(CC(C3)C1)C2` (stereo not given): the GI50 with A549 was 25.7 µM (inactive); in the assay with HCC 2998 it was 20.7 µM (inactive); in the assay on HL-60, 3.46 µM (inactive); with HOP-62 it was 24.3 µM (inactive); with HT-29 it was 21.4 µM (inactive); in the assay with IGROV-1, 16.4 µM (inactive). The GI50 in the assay on K562 is 13.1 µM (inactive); in the assay with LOX IMVI, 1.69 µM (inactive); with MDA-MB-231 it was 16.7 µM (inactive); in the assay with MOLT-4, 18.5 µM (inactive); in the assay on NCI-H522, 29 µM (inactive); with OVCAR-3, 13.7 µM (inactive). In addition, the GI50 is 17.8 µM (inactive) in the assay with OVCAR-4; 17.6 µM (inactive) in the assay on SK-MEL-28; 23.2 µM (inactive) in the assay on SK-OV-3; 17.5 µM (inactive) with SNB-19; 19.1 µM (inactive) in the assay on SNB-75; 20.7 µM (inactive) in the assay on SW-620. For the same compound, the GI50 is 16.6 µM (inactive) in the assay with T47D and 11.9 µM (inactive) in the assay on U-251.

In the case of `COC(=O)C(Cc1ccc(OC)cc1O)NC(=O)OC(C)(C)C` (stereo not given), the GI50 in the assay on A549, with HCC 2998, in the assay on HL-60, with HOP-62, with HT-29 and in the assay on IGROV-1 was > 100 µM (inactive) throughout. For the same compound, the GI50 in the assay on K562 was > 100 µM (inactive); in the assay on LOX IMVI, > 100 µM (inactive); in the assay on MDA-MB-231, > 100 µM (inactive); in the assay on MOLT-4 it was > 100 µM (inactive); with NCI-H522, 96.6 µM (inactive); in the assay with OVCAR-3 it was > 100 µM (inactive). The GI50 in the assay with OVCAR-4, in the assay with SK-MEL-28, with SK-OV-3, in the assay with SNB-19, in the assay on SNB-75 and in the assay with SW-620 was > 100 µM (inactive) in each case. The GI50 with T47D and in the assay on U-251 was > 100 µM (inactive) in each case.

As for `COC(=O)N/N=C(/c1nc2ccc([N+](=O)[O-])cc2nc1O)C(O)c1ccc(OC)c(OC)c1` (stereo not given), the GI50 is > 100 µM (inactive) in the assay with A549; > 100 µM (inactive) in the assay with HCC 2998; > 68.5 µM (inactive) with HL-60; > 60.5 µM (inactive) in the assay on HOP-62; > 72.9 µM (inactive) with HT-29; > 100 µM (inactive) with IGROV-1. Besides, the GI50 in the assay with K562 was 55.2 µM (inactive); in the assay with LOX IMVI, 28.5 µM (inactive); in the assay on MDA-MB-231 it was 64.3 µM (inactive); in the assay with MOLT-4, 33 µM (inactive); with NCI-H522 it was 40.5 µM (inactive); in the assay with OVCAR-3 it was > 54.7 µM (inactive). The GI50 with OVCAR-4, in the assay on SK-MEL-28, in the assay on SK-OV-3, with SNB-19, in the assay with SNB-75 and in the assay on SW-620 was > 100 µM (inactive) throughout. Also, the values for the GI50 in the assay with T47D and with U-251 were 80 µM (inactive) and > 100 µM (inactive), respectively.

As for `COc1ccc(/C(CC2OC(=O)c3ccccc32)=N\NC(=O)C[N+](C)(C)C)cc1` (stereo not given), the GI50 in the assay on A549 was 36 µM (inactive); in the assay with HCC 2998, 16.3 µM (inactive); in the assay with HL-60, 33.4 µM (inactive); with HOP-62 it was 19.2 µM (inactive); in the assay with HT-29 it was 19.2 µM (inactive); in the assay on IGROV-1, 34.4 µM (inactive). Also, the GI50 in the assay on K562 is 19.2 µM (inactive); in the assay on LOX IMVI it was 24.1 µM (inactive); with MDA-MB-231, 57.3 µM (inactive); in the assay with MOLT-4, 23.7 µM (inactive); in the assay on NCI-H522 it was 24.7 µM (inactive); in the assay on OVCAR-3 it was 30.3 µM (inactive). In addition, the GI50 in the assay with OVCAR-4 is 22.6 µM (inactive); with SK-MEL-28, 19.7 µM (inactive); in the assay with SK-OV-3, 38.8 µM (inactive); with SNB-19 it was 29.5 µM (inactive); in the assay on SNB-75, 27.7 µM (inactive); with SW-620 it was 25.5 µM (inactive). Besides, the values for the GI50 in the assay with T47D and with U-251 were 25.8 µM (inactive) and 17.2 µM (inactive), respectively.

Take `O=C(/C=C/c1ccccc1)c1ccccc1` [CHALCONE]: the GI50 with A549 was > 10 µM (inactive); in the assay with HCC 2998, > 10 µM (inactive); with HL-60, 4.07 µM (inactive); in the assay on HOP-62, > 10 µM (inactive); in the assay with HT-29, 6.07 µM (inactive); with IGROV-1, > 10 µM (inactive). In addition, the GI50 in the assay with K562 was > 4.84 µM (inactive); in the assay on LOX IMVI, 1.9 µM (inactive); in the assay on MDA-MB-231, > 10 µM (inactive); in the assay on MOLT-4 it was 0.938 µM (active); with NCI-H522, > 10 µM (inactive); in the assay with OVCAR-3, > 10 µM (inactive). The GI50 is > 10 µM (inactive) with OVCAR-4; > 10 µM (inactive) in the assay with SK-MEL-28; > 10 µM (inactive) in the assay on SK-OV-3; > 10 µM (inactive) in the assay with SNB-19; > 10 µM (inactive) with SNB-75; 3.34 µM (inactive) with SW-620. In addition, the GI50 in the assay on T47D and in the assay on U-251 was > 10 µM (inactive) throughout.

For the compound `COc1cc([C@H]2OC[C@H]3[C@@H]2CO[C@@H]3c2cc(OC)c3c(c2)OCO3)cc(OC)c1OC`, the GI50 in the assay on A549 is 46 µM (inactive) and 55.2 µM (inactive); in the assay on HCC 2998, 56 µM (inactive) and 27.9 µM (inactive); with HL-60, 40 µM (inactive) and > 10 µM (inactive); in the assay on HOP-62 it was 55.6 µM (inactive); in the assay with HT-29, 37.3 µM (inactive) and 54.6 µM (inactive); with IGROV-1, 92.3 µM (inactive) and 66.4 µM (inactive). Besides, the GI50 was 39.4 µM (inactive) and 73.3 µM (inactive) in the assay with K562; 70.6 µM (inactive) and 96.8 µM (inactive) in the assay on LOX IMVI; > 100 µM (inactive) and 50.4 µM (inactive) in the assay on MDA-MB-231; 12.9 µM (inactive) and > 10 µM (inactive) in the assay on MOLT-4; 32.7 µM (inactive) and 20.7 µM (inactive) in the assay on NCI-H522; 87.1 µM (inactive) with OVCAR-3. The GI50 is 48.5 µM (inactive) and 43.7 µM (inactive) with OVCAR-4; > 100 µM (inactive) with SK-MEL-28; > 100 µM (inactive) with SK-OV-3; 53.6 µM (inactive) and 43.8 µM (inactive) in the assay on SNB-19; 46.6 µM (inactive) and 84.5 µM (inactive) in the assay with SNB-75; > 100 µM (inactive) in the assay with SW-620. Also, the GI50 in the assay with T47D is 34.2 µM (inactive) and 37.9 µM (inactive); with U-251, 83 µM (inactive) and 57.9 µM (inactive).

For the compound `O=C1C=CC[C@H](/C=C/C[C@@H](O)C[C@H](O)/C=C/c2ccccc2)O1`, the GI50 in the assay with A549 was 15.8 µM (inactive); with HCC 2998, 2.28 µM (inactive); with HL-60, 3.56 µM (inactive); with HOP-62, 16.5 µM (inactive); with HT-29, 11.4 µM (inactive); in the assay on IGROV-1, 13.6 µM (inactive). Besides, the GI50 was 10.9 µM (inactive) in the assay with K562; 2.92 µM (inactive) with LOX IMVI; 10.5 µM (inactive) with MDA-MB-231; 14 µM (inactive) in the assay on MOLT-4; 4.25 µM (inactive) in the assay on NCI-H522; 11.5 µM (inactive) in the assay on OVCAR-3. Moreover, the GI50 with OVCAR-4 is 14.6 µM (inactive); in the assay with SK-MEL-28, 16.7 µM (inactive); with SK-OV-3 it was 15 µM (inactive); with SNB-19, 19.2 µM (inactive); in the assay with SNB-75 it was 13.6 µM (inactive); with SW-620, 13.5 µM (inactive). The values for the GI50 in the assay on T47D and in the assay on U-251 were 14.3 µM (inactive) and 11.9 µM (inactive), respectively.

For `CC(OC(C)(C)C)C1NC(=O)C(CCCCNC(=O)OC(C)(C)C)NC(=O)C(Cc2c[nH]c3ccccc23)NC(=O)C(Cc2ccccc2)NC(=O)[C@H]2CCC[C@H]2NC(=O)C(Cc2ccccc2)NC1=O` (stereo not given in full) (cyclo([X26][ξF][ξW][ξK](Boc)[ξT](tBu)[ξF])), the GI50 is 73.3 µM (inactive) in the assay on A549; 12.2 µM (inactive) in the assay on HCC 2998; > 100 µM (inactive) with HL-60; > 100 µM (inactive) with HOP-62; 11.4 µM (inactive) in the assay on HT-29; 50.4 µM (inactive) in the assay with IGROV-1. Moreover, the GI50 is 9.57 µM (inactive) with K562; 16.1 µM (inactive) in the assay with LOX IMVI; 31.8 µM (inactive) with MDA-MB-231; 14.2 µM (inactive) with MOLT-4; 61.7 µM (inactive) in the assay on NCI-H522; > 100 µM (inactive) in the assay on OVCAR-3. Further, the GI50 is > 100 µM (inactive) in the assay on OVCAR-4; > 100 µM (inactive) in the assay on SK-MEL-28; 48 µM (inactive) in the assay on SK-OV-3; 30 µM (inactive) in the assay on SNB-19; 5.3 µM (inactive) with SNB-75; > 100 µM (inactive) in the assay with SW-620. For the same compound, the GI50 was 15.2 µM (inactive) in the assay on T47D and 25.5 µM (inactive) in the assay with U-251.

As for `CC(Oc1ccccc1)C(=O)NNC(=O)OC(C)(C)C` (stereo not given), the GI50 in the assay on A549, with HCC 2998, in the assay on HL-60, in the assay with HOP-62, with HT-29 and with IGROV-1 was > 100 µM (inactive) each time. Further, the GI50 in the assay on K562, in the assay with LOX IMVI, in the assay on MDA-MB-231, in the assay on MOLT-4, in the assay with NCI-H522 and with OVCAR-3 was > 100 µM (inactive) each time. Besides, the GI50 in the assay with OVCAR-4, in the assay on SK-MEL-28, with SK-OV-3, in the assay on SNB-19, in the assay with SNB-75 and in the assay with SW-620 was > 100 µM (inactive) throughout. The GI50 in the assay on T47D and in the assay with U-251 was > 100 µM (inactive) throughout.

These data come from ChEMBL document CHEMBL1201862, “PubChem BioAssay data set” (2004).
